# Target: T1, human NAAA (Homo sapiens, UniProt Q02083)
# T1 construct: expressed in transfected cells; host or cells: HEK-293 (stably transfected, G418 selection); enzyme-enriched lysate
# T1 sequence (Q02083 126-359 limits assumed): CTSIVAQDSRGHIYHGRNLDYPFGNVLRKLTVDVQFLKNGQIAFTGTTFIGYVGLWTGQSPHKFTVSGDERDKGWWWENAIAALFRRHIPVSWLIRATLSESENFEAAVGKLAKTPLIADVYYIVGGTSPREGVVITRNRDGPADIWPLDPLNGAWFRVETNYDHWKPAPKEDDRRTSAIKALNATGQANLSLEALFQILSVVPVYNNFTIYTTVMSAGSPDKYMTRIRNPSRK
# T1 sequence (Q02083 29-125 limits assumed): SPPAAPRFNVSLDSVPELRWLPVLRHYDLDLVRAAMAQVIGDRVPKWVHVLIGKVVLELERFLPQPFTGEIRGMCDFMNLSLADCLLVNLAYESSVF
# Assay: In vitro human NAAA fluorogenic assay
# Assay type: biochemical
# Details: enzyme-enriched lysate of HEK-293 cells stably transfected with human NAAA; read-out: Activity h-NAAA Fluorogenic assay
# Procedure: Human recombinant proteins were obtained from HEK-293 stable overexpressing NAAA cell lines. Cells were grown in Dulbecco's modified Eagle medium (DMEM) containing 10% FBS, 1% penicillin/streptomycin, 1% glutamine and 500 μg/mL G418. To obtain membrane preparation cells were scraped off with cold phosphate-buffered saline (PBS) and collected by centrifugation (300×g, 7 min, 4° C.). Cell pellet were stored at −80° C. until protein preparation.
# In Vitro Human NAAA Assay
# Preparation of Enzyme-Enriched Lysate (h-NAAA).
# HEK-293 cells stably transfected with the human NAAA coding sequences were used as enzyme source. Cell pellets were suspended in 20 mM Tris HCl (pH 7.4) with 0.32 M sucrose, sonicated and centrifuged at 800×g for 30 min at 4° C. Supernatants were then ultracentrifuged at 12,000×g for 30 min at 4° C. Pellets were re-suspended in PBS buffer (pH 7.4) and subjected to three freeze-thaw cycles at −80° C. The suspension was finally ultracentrifuged at 105,000×g for 1 h at 4° C., supematants were collected, protein concentration was measured and samples aliquoted and stored at −80° C. until use.
# The results are summarized in Table 3 as follows, wherein +: IC50>2 μM; ++: 1.0 μM<IC50<2 μM; +++: IC50<1 μM: […]
row,IC50 [nM],SMILES
1,< 1000,"Cc1ccccc1OC1CC2CCC(C1)N2S(=O)(=O)c1c(C)n[nH]c1C [Example 12, (1R,3r,5S)-3-(2-methylphenoxy)-8-[(3,5-dimethyl-1H-pyrazol-4-yl)sulfonyl]-8-azabicyclo[3.2.1]octane]"
2,< 1000,"Cc1n[nH]c(C)c1S(=O)(=O)N1C2CCC1CC(Oc1cnccn1)C2 [Example 13, (1R,3r,5S)-8-[(3,5-Dimethyl-1H-pyrazol-4-yl)sulfonyl]-3-pyrazin-2-yloxy-8-azabicyclo[3.2.1]octane]"
3,> 2000,"CCCCc1ccc(OC2CC3CCC(C2)N3S(=O)(=O)c2cc(C)sc2C)cc1 [Example 16, (1R,3r,5S)-3-(4-Butylphenoxy)-8-[(2,5-dimethyl-3-thienyl)sulfonyl]-8-azabicyclo[3.2.1]octane]"
4,< 1000,"CCc1ccc(OC2CC3CCC(C2)N3S(=O)(=O)c2c(C)n[nH]c2C)cc1 [Example 17, (1R,3r,5S)-3-(4-Ethylphenoxy)-8-[(3,5-dimethyl-1H-pyrazol-4-yl)sulfonyl]-8-azabicyclo[3.2.1]octane]"
5,> 2000,"Cc1n[nH]c(C)c1S(=O)(=O)N1C2CCC1CC(Oc1ccc3ccccc3n1)C2 [Example 22, (1R,3r,5S)-8-[(3,5-Dimethyl-1H-pyrazol-4-yl)sulfonyl]-3-(2-quinolyloxy)-8-azabicyclo[3.2.1]octane]"
6,< 1000,"Cc1n[nH]c(C)c1S(=O)(=O)N1C2CCC1CC(Oc1ccccn1)C2 [Example 25, (1R,3r,5S)-8-[(3,5-Dimethyl-1H-pyrazol-4-yl)sulfonyl]-3-(2-pyridiloxy)-8-azabicyclo[3.2.1]octane]"
7,< 1000,"CCCOc1ccc(OC2CC3CCC(C2)N3S(=O)(=O)c2c(C)n[nH]c2C)cc1 [Example 26, (1R,3r,5S)-3-(4-Propoxyphenoxy)-8-[(3,5-dimethyl-1H-pyrazol-4-yl)sulfonyl]-8-azabicyclo[3.2.1]octane]"
8,> 2000,"Cc1n[nH]c(C)c1S(=O)(=O)N1C2CCC1CC(Oc1nc3c(C)cccc3o1)C2 [Example 28, (1R,3r,5S)-8-[(3,5-Dimethyl-1H-pyrazol-4-yl)sulfonyl]-3-(2-(4-methyl)-benzoxazoloxy)-8-azabicyclo[3.2.1]octane]"
9,< 1000,"Cc1n[nH]c(C)c1S(=O)(=O)N1C2CCC1CC(Oc1ccc(C(F)(F)F)cc1)C2 [Example 29, (1R,3r,5S)-3-(4-Trifluoromethyl-phenoxy)-8-[(3,5-dimethyl-1H-pyrazol-4-yl)sulfonyl]-8-azabicyclo[3.2.1]octane]"
10,> 2000,"CCN(CC)Cc1ccc(OC2CC3CCC(C2)N3S(=O)(=O)c2c(C)n[nH]c2C)cc1 [Example 32, (1R,3r,5S)-3-[4-Diethylaminomethyl-phenoxy]-8-[(3,5-dimethyl-1H-pyrazol-4-yl)sulfonyl]-8-azabicyclo[3.2.1]octane]"
11,< 1000,"Cc1n[nH]c(C)c1S(=O)(=O)N1C2CCC1CC(Oc1ccc(CCC(C)C)cc1)C2 [Example 33, (1R,3r,5S)-3-[4-Isopentyl-phenoxy]-8-[(3,5-dimethyl-1H-pyrazol-4-yl)sulfonyl]-8-azabicyclo[3.2.1]octane]"
12,> 2000,"Cc1n[nH]c(C)c1S(=O)(=O)N1C2CCC1CC(Oc1cnc3ccccc3n1)C2 [Example 34, (1R,3r,5S)-8-[(3,5-Dimethyl-1H-pyrazol-4-yl)sulfonyl]-3-(2-quinoxalyloxy)-8-azabicyclo[3.2.1]octane]"
13,< 1000,"CCOCc1ccc(OC2CC3CCC(C2)N3S(=O)(=O)c2c(C)n[nH]c2C)cc1 [Example 35, (1R,3r,5S)-3-(4-Ethoxymethyl-phenoxy)-8-[(3,5-dimethyl-1H-pyrazol-4-yl)sulfonyl]-8-azabicyclo[3.2.1]octane]"

# The remaining lines, values behind:
row,SMILES,IC50 [nM]
1,"Cc1n[nH]c(C)c1S(=O)(=O)N1C2CCC1CC(Oc1ccccc1)C2 [Example 01, (1R,3s,5S)-8-[(3,5-Dimethyl-1H-pyrazol-4-yl)sulfonyl]-3-phenoxy-8-azabicyclo[3.2.1]octane]",< 1000
2,"Cc1n[nH]c(C)c1S(=O)(=O)N1C2CCC1CC(Oc1ccccc1)C2 [Example 02, (1R,3r,5S)-8-[(3,5-Dimethyl-1H-pyrazol-4-yl)sulfonyl]-3-phenoxy-8-azabicyclo[3.2.1]octane]",< 1000
3,"Cc1cccc(OC2CC3CCC(C2)N3S(=O)(=O)c2c(C)n[nH]c2C)c1 [Example 04, (1R,3r,5S)-3-(3-Methylphenoxy)-8-[(3,5-dimethyl-1H-pyrazol-4-yl)sulfonyl]-8-azabicyclo[3.2.1]octane]",< 1000
4,"Cc1cccc(OC2CC3CCC(C2)N3S(=O)(=O)c2c(C)n[nH]c2C)c1 [Example 05, (1R,3s,5S)-3-(3-Methylphenoxy)-8-[(3,5-dimethyl-1H-pyrazol-4-yl)sulfonyl]-8-azabicyclo[3.2.1]octane]",> 2000
5,"Cc1n[nH]c(C)c1S(=O)(=O)N1C2CCC1CC(Oc1ccc(-c3ccccc3)cc1)C2 [Example 06, (1R,3r,5S)-3-(4-phenylphenoxy)-8-[(3,5-dimethyl-1H-pyrazol-4-yl)sulfonyl]-8-azabicyclo[3.2.1]octane]",1000 to 2000
6,"Cc1ccc(OC2CC3CCC(C2)N3S(=O)(=O)c2c(C)n[nH]c2C)cc1 [Example 07, (1R,3r,5S)-3-(4-methylphenoxy)-8-[(3,5-dimethyl-1H-pyrazol-4-yl)sulfonyl]-8-azabicyclo[3.2.1]octane]",< 1000
7,"Cc1ccc(OC2CC3CCC(C2)N3S(=O)(=O)c2c(C)n[nH]c2C)cc1 [Example 10, (1R,3s,5S)-3-(4-methylphenoxy)-8-[(3,5-dimethyl-1H-pyrazol-4-yl)sulfonyl]-8-azabicyclo[3.2.1]octane]",> 2000
8,"Cc1ccccc1OC1CC2CCC(C1)N2S(=O)(=O)c1c(C)n[nH]c1C [Example 11, (1R,3s,5S)-3-(2-methylphenoxy)-8-[(3,5-dimethyl-1H-pyrazol-4-yl)sulfonyl]-8-azabicyclo[3.2.1]octane]",> 2000
9,"CCCCc1ccc(OC2CC3CCC(C2)N3S(=O)(=O)c2c(C)nn(C)c2C)cc1 [Example 14, (1R,3r,5S)-3-(4-Butylphenoxy)-8-(1,3,5-trimethylpyrazol-4-yl)sulfonyl-8-azabicyclo[3.2.1]octane]",< 1000
10,"Cc1n[nH]c(C)c1S(=O)(=O)N1C2CCC1CC(Oc1ccc(C(C)C)cc1)C2 [Example 18, (1R,3r,5S)-3-(4-Isopropylphenoxy)-8-[(3,5-dimethyl-1H-pyrazol-4-yl)sulfonyl]-8-azabicyclo[3.2.1]octane]",< 1000
11,"CCCCc1ccc(OC2CC3CCC(C2)N3S(=O)(=O)c2c(C(C)C)n[nH]c2C)cc1 [Example 20, (1R,3r,5S)-3-(4-Butylphenoxy)-8-[(3-isopropyl-5-methyl-1H-pyrazol-4-yl)sulfonyl]-8-azabicyclo[3.2.1]octane]",< 1000
12,"Cc1ccc(OC2CC3CCC(C2)N3S(=O)(=O)c2c(C)n[nH]c2C)c(F)c1 [Example 21, (1R,3r,5S)-3-(2-Fluoro-4-methylphenoxy)-8-[(3,5-dimethyl-1H-pyrazol-4-yl)sulfonyl]-8-azabicyclo[3.2.1]octane]",< 1000
13,"Cc1n[nH]c(C)c1S(=O)(=O)N1C2CCC1CC(Oc1nc3ccccc3o1)C2 [Example 23, (1R,3r,5S)-8-[(3,5-Dimethyl-1H-pyrazol-4-yl)sulfonyl]-3-(2-benzoxazoloxy)-8-azabicyclo[3.2.1]octane]",< 1000
14,"COc1ccc(O[C@H]2C[C@H]3CC[C@@H](C2)N3S(=O)(=O)c2c(C)n[nH]c2C)cc1 [Example 24, (1R,3r,5S)-3-(4-Methoxyphenoxy)-8-[(3,5-dimethyl-1H-pyrazol-4-yl)sulfonyl]-8-azabicyclo[3.2.1]octane]",< 1000
15,"Cc1ccc(OC2CC3CCC(C2)N3S(=O)(=O)c2c(C)n[nH]c2C)nc1 [Example 27, (1R,3r,5S)-8-[(3,5-Dimethyl-1H-pyrazol-4-yl)sulfonyl]-3-[(5-methyl-2-pyridil)oxy]-8-azabicyclo[3.2.1]octane]",< 1000
16,"Cc1n[nH]c(C)c1S(=O)(=O)N1C2CCC1CC(Oc1ccc(C=O)cc1)C2 [Example 30, (1R,3r,5S)-3-(4-Formyl-phenoxy)-8-[(3,5-dimethyl-1H-pyrazol-4-yl)sulfonyl]-8-azabicyclo[3.2.1]octane]",< 1000
17,"Cc1n[nH]c(C)c1S(=O)(=O)N1C2CCC1CC(Oc1ccc(CO)cc1)C2 [Example 31, (1R,3r,5S)-3-(4-Hydroxymethyl-phenoxy)-8-[(3,5-dimethyl-1H-pyrazol-4-yl)sulfonyl]-8-azabicyclo[3.2.1]octane]",< 1000
18,"Cc1cnc(OC2CC3CCC(C2)N3S(=O)(=O)c2c(C)n[nH]c2C)cn1 [Example 36, (1R,3r,5S)-8-[(3,5-Dimethyl-1H-pyrazol-4-yl)sulfonyl]-3-(5-methylpyrazin-2-yl)oxy-8-azabicyclo[3.2.1]octane]",< 1000

# Reference: patent US10865194B2, “Therapeutically active bicyclic-sulphonamides and pharmaceutical compositions” (FONDAZIONE ISTITUTO ITALIANO DI TECNOLOGIA, priority 2017, dated 2020)
